Assay results reported in patent US20260226128A1, “Capped Peptides and Methods for Using the Same” (The Board of Trustees of the Leland Stanford Junior …, priority 2023, published 2026).

What was measured:
[1] = tested on: diet-induced obese mice; experiment: Single dose in diet-induced obese mice, metabolic chambers (CAP-GDF15 experiments); format: in vivo, mouse; conditions: single dose 50 mg/kg intraperitoneally
Protocol: (§1) FIG. 5. Functional studies of CAP-GDF15 in feeding and energy balance in mice. […] (B) Representative extracted ion chromatogram and (C) mirror tandem fragmentation spectra of CAP-GDF15 (pGlu-[…]-NH2; +2 ion m/z=682.4) and the endogenous plasma peak. (D) Food intake, (E) respiratory exchange ratio (RER), and (F) ambulatory activity of 12-16-week diet-induced obese male mice following a single treatment of CAP-GDF15 (50 mg/kg, intraperitoneal) or vehicle control. (G) Food intake, (H) RER, and (I) ambulatory activity of 12-16-week diet-induced obese male mice following a single treatment of scrambled CAP-GDF15 (50 mg/kg, intraperitoneal, scrambled sequence: pGlu-[…]-NH2) or vehicle control. (J) 3-day food intake and (K) body weight of 12-16-week diet-induced obese male mice following treatment with CAP-GDF15 or scrambled CAP-GDF15 (50 mg/kg/day, IP), or vehicle control. Data are shown as means #SEM. For (D-F), N=12/group; for (G-I), N=8/group; for (J,K), N=7/group. For (D-1), injection occurred at time T=0 (5:00 μm) and data was collected for the following 16 hrs. For (D-K), ** P<0.01, *** P<0.001 by two-way ANOVA.
FIG. 6. Additional measurements from metabolic chambers of mice treated with CAP-GDF15. (A) VO2 and (B) VCO2 of 12-16-week diet-induced obese male mice following a single treatment of CAP-GDF15 (50 mg/kg, intraperitoneal) or vehicle control. (C) VO2 and (D) VCO2 of 12-16-week diet-induced obese male mice following a single treatment of scrambled CAP-GDF15 (50 mg/kg, intraperitoneal, scrambled sequence: p[…]-NH2) or vehicle control. Data are shown as means±SEM. For (A-B), N=12/group; for (C-D), N=8/group. For (A-D), injection occurred at time T=0 (5:00 μm) and data was collected for the subsequent 16 hrs.
To test this possibility, we administered a single dose of CAP-GDF15 (50 mg/kg, intraperitoneally) to diet-induced obese mice and measured whole body parameters of energy balance in metabolic chambers.
We next synthesized a control CAP-GDF15 peptide that preserved amino acid composition but scrambled the intervening amino acid sequence (scrambled CAP-GDF15, pGlu-[…]-NH2). […] We conclude that the hypophagic effects of CAP-GDF15 are specific to this amino acid sequence.
(§2) Mice and treatments. Animal experiments were performed according to a procedure approved by the Stanford University Administrative Panel on Laboratory Animal Care. Mice were maintained in 12-h light-dark cycles at 22° C. and about 50% relative humidity and fed a standard irradiated rodent diet. Where indicated, a high-fat diet (D12492, Research Diets 60% kcal from fat) was used. Male C57BL/6J (stock number 000664) and male C57BL/6J DIO mice were purchased from the Jackson Laboratory (stock number 380050). For studies in high fat diet-fed mice, peptides were dissolved in 18:1:1 (by volume) of saline: Kolliphor EL (Sigma Aldrich): DMSO and administered to mice by intraperitoneal injections at a volume of 10 μl/g at the indicated doses for the indicated times. For lipopolysaccharide injection, LPS was dissolved in saline and administered to mice at a volume of 5 μl/g at indicated dose. For fasting, food was removed from mice for 16 h. For running, a six-lane Columbus Instruments animal treadmill (product 1055-SRM-D65) was used with following 1 h protocol: 10 min at 6 m/min, 50 min at 18 m/min, and increase every 2 min by 2 m/min for the last 10 minutes, all at 12° incline. For all treatment experiments, mice were mock injected with the vehicle for 3-5 days until body weights were stabilized. Heparin plasm was harvested by submandibular bleed. For all experiments, mice were randomly assigned to treatment groups. Experimenters were not blinded to groups.
Metabolic chamber studies. For acute energy expenditure studies, food intake, RER, movement, VO2, and VCO2 were collected with CLAMS Oxymax Metabolic Cages. Mice were placed individual metabolic cages for 24 hours prior to experiment. […]

[2] = tested on: diet-induced obese mice; experiment: Three-day daily dosing in diet-induced obese mice, food intake and body weight; format: in vivo, mouse; conditions: 50 mg/kg/day, IP, 3 days, versus vehicle control
Protocol: as §1
Lastly, to determine whether the acute hypophagic effects of CAP-GDF15 would lead to long-term suppression of feeding and obesity, we administered CAP-GDF15 or scrambled CAP-GDF15 (50 mg/kg/day, IP), or vehicle control to diet-induced obese mice. Food intake and body weight were monitored over a three-day period. […] Importantly, mice treated with the scrambled CAP-GDF15 peptide were indistinguishable in body weight or food intake from control mice (FIGS. 5J-5K).
as §2, with “For all treatment experiments, mice were mock injected with the vehicle for 3-5 days until body weights were stabilized. Heparin plasm was harvested by submandibular bleed. For all experiments, mice were randomly assigned to treatment groups. Experimenters were not blinded to groups.” left out

[3] = tested on: GH3 cells; experiment: Growth hormone secretion from GH3 cells (ELISA of media); format: cell-based, rat; conditions: 10 μM
Protocol: FIG. 13. Functional screen in GH3 cells identifies CAP-WNT9A as a growth hormone secretagogue in vitro. (A) Z-score of media growth hormone concentration with 1 hour treatment of 10 μM of 100% conserved capped peptides growth hormone secretagogue activity in GH3 cells (N=1 for all peptides and N=3 for DMSO). (B) Media growth hormone concentration with 1 hour treatment of 10 μM CAP-WNT9A or DMSO (N=3/group). (Error bars are SEM.)
In a functional screen in GH3 cells, a rat pituitary cell line, various capped peptides are shown to activate growth hormone secretion (FIG. 13A).
In vitro studies. GH3 cells (rat pituitary cell line, ATCC cat. #CCL-82.1) were cultured in F-12K medium with 2.5% fetal bovine serum and 15% horse serum. GH3 cells were washed, resuspended in Krebs Ringer Hepes Buffer, diluted to 0.5 million cells/mL, and aliquoted into tubes (300 μL/sample). The GH3 cells were then starved for 60 minutes in Krebs Ringer Hepes Buffer. The capped peptides (N=1 in screen and N=3 in repeat with CAP-WNT9A) or DMSO (N=3) control were added at a 10 μM final concentration. GH3 cells were incubated for 1 hour. Cells were pelleted with 5 min centrifuge spin at 500×g at 4 C. Grown hormone was measured in the supernatant with an ELISA kit (Thermo Cat #KRC5311) according to product protocol. Z-score of growth hormone concentration is shown. […]

Substance | respiratory exchange ratio (RER) ([1]; 16 hrs after injection) | food intake, effect in words ([1]; identical experimental conditions) | body weight over three-day period [2] | food intake over three-day period [2] | carbon dioxide production (VCO2) [1] | movement (ambulatory activity) [1] | oxygen consumption (VO2) [1] | suppression of food intake compared to vehicle-treated mice ([1]; 16 hrs after injection) | growth hormone secretagogue activity in screen (Z-score of media growth hormone concentration) ([3]; 1 hour treatment, N=1) | growth hormone concentration in media versus DMSO ([3]; one hour treatment, N=3)
pGlu-GLEALRARLRV-NH2 (HELM PEPTIDE1{[Glp].G.L.E.A.L.R.A.R.L.R.V.[am]}$$$$V2.0; SMILES CC(C)C[C@H](NC(=O)CNC(=O)[C@@H]1CCC(=O)N1)C(=O)N[C@@H](CCC(=O)O)C(=O)N[C@@H](C)C(=O)N[C@@H](CC(C)C)C(=O)N[C@@H](CCCNC(=N)N)C(=O)N[C@@H](C)C(=O)N[C@@H](CCCNC(=N)N)C(=O)N[C@@H](CC(C)C)C(=O)N[C@@H](CCCNC(=N)N)C(=O)N[C@H](C(N)=O)C(C)C) [scrambled CAP-GDF15, reference compound] | completely ineffective | completely ineffective | indistinguishable | indistinguishable | – | – | – | – | – | –
pGlu-LELRLRVAAGR-NH2 (HELM PEPTIDE1{[Glp].L.E.L.R.L.R.V.A.A.G.R.[am]}$$$$V2.0; SMILES CC(C)C[C@H](NC(=O)[C@@H]1CCC(=O)N1)C(=O)N[C@@H](CCC(=O)O)C(=O)N[C@@H](CC(C)C)C(=O)N[C@@H](CCCNC(=N)N)C(=O)N[C@@H](CC(C)C)C(=O)N[C@@H](CCCNC(=N)N)C(=O)N[C@H](C(=O)N[C@@H](C)C(=O)N[C@@H](C)C(=O)NCC(=O)N[C@@H](CCCNC(=N)N)C(N)=O)C(C)C) [CAP-GDF15, 12-mer capped peptide from amino acids 174-185 of mouse GDF15 prepropeptide region] | suppression of respiratory exchange ratio (RER) was also observed | – | increasing reduction in body weight | durable suppression of food intake | did not alter | did not alter | did not alter | ~ 60% | – | –
pGlu-WGGCGDNLKYSSKFVEFL-NH2 (HELM PEPTIDE1{[Glp].W.G.G.C.G.D.N.L.K.Y.S.S.K.F.V.E.F.L.[am]}$$$$V2.0; SMILES CC(C)C[C@H](NC(=O)[C@H](Cc1ccccc1)NC(=O)[C@H](CCC(=O)O)NC(=O)[C@@H](NC(=O)[C@H](Cc1ccccc1)NC(=O)[C@H](CCCCN)NC(=O)[C@H](CO)NC(=O)[C@H](CO)NC(=O)[C@H](Cc1ccc(O)cc1)NC(=O)[C@H](CCCCN)NC(=O)[C@H](CC(C)C)NC(=O)[C@H](CC(N)=O)NC(=O)[C@H](CC(=O)O)NC(=O)CNC(=O)[C@H](CS)NC(=O)CNC(=O)CNC(=O)[C@H](Cc1c[nH]c2ccccc12)NC(=O)[C@@H]1CCC(=O)N1)C(C)C)C(N)=O) [CAP-WNT9A, top hit of growth hormone secretagogue screen] | – | – | – | – | – | – | – | – | highest growth hormone secretagogue activity | increased by four times
